Experimental data: patent US4594329A, “CRF analogs” (The Salk Institute for Biological Studies, priority 1984, dated 1986)
Square brackets hold non-standard residues; d marks the D form. Peptide text beside a SMILES is read from it. hArg = N=C(N)NCCCC[C@H](N)C(=O)O; Nle = CCCC[C@H](N)C(=O)O; Orn = NCCC[C@H](N)C(=O)O

Experiments:
[1] = lowering of blood pressure, in vivo testing; details: for lowering of blood pressure: general procedure of Example III; for lowering of blood pressure compared with rCRF: comparison with rCRF
Protocol: (§1) The synthetic peptide AHC and oCRF were examined for their effects on the secretion of ACTH and β-endorphin in vitro and was also in vivo. The potency of synthetic oCRF to stimulate the secretion of ACTH and β-endorphin by cultured rat pituitary cells was measured using the procedure as generally set forth in Endocrinology, 91, 562 (1972). […] In vivo testing is carried out using the general procedure set forth in C. Rivier et al., Science, 218, 377 (1982).

[2] = system: cultured rat pituitary cells; assay: secretion of ACTH and β-endorphin by cultured rat pituitary cells; assay type: cell-based; details: general procedure of Example III
Protocol: as §1

[3] = rats; administered into the ventricles; cited from earlier work

Compound | lowering of blood pressure [1] | stimulates the secretion of ACTH and β-END-LI [2] | lowering of blood pressure compared with rCRF [1] | activity [3] | learning performance [3] | secretion of ACTH and β-END-LI, amount relative to oCRF ([2]; % of oCRF)
CCCC[C@H](NC(=O)[C@H](CCC(=O)O)NC(=O)[C@H](CC(C)C)NC(=O)[C@H](CCCC)NC(=O)[C@H](CCC(=O)O)NC(=O)[C@H](CCCNC(=N)N)NC(=O)[C@H](CC(C)C)NC(=O)[C@H](CC(C)C)NC(=O)[C@H](Cc1c[nH]cn1)NC(=O)[C@H](Cc1ccccc1)NC(=O)[C@@H](NC(=O)[C@H](CC(C)C)NC(=O)[C@H](CC(=O)O)NC(=O)[C@H](CC(C)C)NC(=O)[C@H](CO)NC(=O)[C@@H](N)[C@@H](C)CC)[C@@H](C)O)C(=O)N[C@@H](C)C(=O)N[C@@H](CCCCN)C(=O)N[C@@H](C)C(=O)N[C@@H](CCC(=O)O)C(=O)N[C@@H](CCC(N)=O)C(=O)N[C@@H](CCC(=O)O)C(=O)N[C@@H](C)C(=O)N[C@@H](CCC(=O)O)C(=O)N[C@@H](CCC(N)=O)C(=O)N[C@@H](C)C(=O)N[C@@H](C)C(=O)N[C@@H](CC(C)C)C(=O)N[C@@H](CC(N)=O)C(=O)N[C@@H](CCCNC(=N)N)C(=O)N[C@@H](CCCNC(=N)N)C(=O)N[C@@H](CC(C)C)C(=O)N[C@@H](CC(C)C)C(=O)N[C@@H](CCC(=O)O)C(=O)N[C@@H](CCC(=O)O)C(=O)N[C@@H](C)C(N)=O [[Nle^18,21,Arg^36]-AHC(6-41)] (H-ISLDLTFHLLRE[Nle]LE[Nle]AKAEQEAEQAALNRRLLEEA-NH2) | very significant lowering of blood pressure | stimulates the secretion of ACTH and β-END-Li | – | – | – | –
CCCC[C@H](NC(=O)[C@H](CCC(=O)O)NC(=O)[C@H](CCCNC(=N)N)NC(=O)[C@H](CC(C)C)NC(=O)[C@H](CC(C)C)NC(=O)[C@H](Cc1c[nH]cn1)NC(=O)[C@H](Cc1ccccc1)NC(=O)[C@@H](NC(=O)[C@H](CC(C)C)NC(=O)[C@H](CC(=O)O)NC(=O)[C@H](CC(C)C)NC(=O)[C@H](CO)NC(=O)[C@@H](NC(=O)[C@@H]1CCCN1C(=O)[C@@H]1CCCN1C(=O)[C@H](CCC(=O)O)NC(=O)[C@@H](N)CCC(N)=O)[C@@H](C)CC)[C@@H](C)O)C(=O)N[C@@H](CC(C)C)C(=O)N[C@@H](CCC(=O)O)C(=O)N[C@@H](CCSC)C(=O)N[C@H](C(=O)N[C@@H](CCCCN)C(=O)N[C@@H](C)C(=O)N[C@@H](CC(=O)O)C(=O)N[C@@H](CCC(N)=O)C(=O)N[C@@H](CC(C)C)C(=O)N[C@@H](C)C(=O)N[C@@H](CCC(N)=O)C(=O)N[C@@H](CCC(N)=O)C(=O)N[C@@H](C)C(=O)N[C@@H](Cc1c[nH]cn1)C(=O)N[C@@H](CO)C(=O)N[C@@H](CC(N)=O)C(=O)N[C@@H](CCCNC(=N)N)C(=O)N[C@@H](CCCCN)C(=O)N[C@@H](Cc1ccc(O)cc1)C(=O)N[C@@H](CC(C)C)C(=O)N[C@@H](CC(=O)O)C(=O)N[C@@H](CCC(=O)O)C(=O)N[C@@H](C)C(N)=O)[C@@H](C)O [[Nle^18,Tyr^37,Glu^40]-oCRF(2-41)] (H-QEPPISLDLTFHLLRE[Nle]LEMTKADQLAQQAHSNRKYLDEA-NH2) | very significant lowering of blood pressure | stimulates the secretion of ACTH and β-END-LI | – | – | – | –
Ac-GEEPPISLDLTFHLLREVLEMARAEQLAQQAHLNRKLMEEI-NH2 [[Acetyl-Gly^1, Leu^33, Glu^40]-rCRF] | very significant lowering of blood pressure | stimulates the secretion of ACTH and β-END-LI | – | – | – | –
Ac-PPISLDLTFHLLREVLEMARAEQLAEQAHSNRKYMEEI-NH2 | very significant lowering of blood pressure | stimulates the secretion of ACTH and β-END-LI | to a greater extent than rCRF | – | – | –
CRF: corticotropin releasing factor, the hentetracontapeptide; species not stated at the place (H-SEEPPISLDLTFHLLREVLEMARAEQLAQQAHSNRKLMEII-NH2; ends and bridges not checked; UniProt P06850 154-194, looked up) | – | – | – | increases activity | improves learning performance | –
H-PPISIDLSLELLRKMIEIAKQEKEKEQAANNRLLMDTI-NH2 | very significant lowering of blood pressure | stimulates the secretion of ACTH and β-END-LI | – | – | – | –
H-PPISLDLTFHLLREVLEMARAEQLAQQAHLNRKLMEQI-NH2 | very significant lowering of blood pressure | stimulates the secretion of ACTH and β-END-LI | – | – | – | –
H-SEEPPISLDLTFHLLREVLEMTRAEQLAEQAHSNRKLMEEI-NH2 [[Thr^22, Glu^29,40]-rCRF] | very significant lowering of blood pressure | stimulates the secretion of ACTH and β-END-LI | – | – | – | –
H-SEEPPISLDLTFHLLREVLE[Nle]ARAEQLAQQAYLNRKLMEEI-NH2 [[Nle^21, Tyr^32, Leu^33, Glu^40]-rCRF] | very significant lowering of blood pressure | stimulates the secretion of ACTH and β-END-LI | to a greater extent than rCRF | – | – | –
H-SEEPPISLDLTFHLLREVLE[Nle]A[hArg]AEQLAQQAHLNRKLMEE[Nle]-NH2 | very significant lowering of blood pressure | stimulates the secretion of ACTH and β-END-LI | – | – | – | –
H-SEEPPISLDLTLELLREMLEME[Orn]AEKEAEQAALNRLLLEEA-NH2 | very significant lowering of blood pressure | stimulates the secretion of ACTH and β-END-LI | – | – | – | –
H-SEEPPISLELTFHLLREVLE[Nle]ARAEQLAEQAHLNRKLMEII-NH2 [[Glu^9, Nle^21, Glu^29, Leu^33]-rCRF] | very significant lowering of blood pressure | stimulates the secretion of ACTH and β-END-LI | to a greater extent than rCRF | – | – | –
H-SEEPPIS[Nle]DLSFHLLREVLEMARAEQLAQQAHLNRKLMEEI-NH2 [[Nle^8, Ser^11, Leu^33, Glu^40]-rCRF] | very significant lowering of blood pressure | stimulates the secretion of ACTH and β-END-LI | – | – | – | –
H-SQEPPISLDLTFALLREMLEMAKAEQEAEQAALNRLLLEEA-NH2 [[Ala^13]-AHC] | very significant lowering of blood pressure | stimulates the secretion of ACTH and β-END-LI | – | – | – | –
H-SQEPPISLDLTFHLLREVLEMTRADQLAQQAHSNRRLLDIA-NH2 [[Arg^23,36]-oCRF] | very significant lowering of blood pressure | – | – | – | – | about 370%
H-SQEPPISLDLTFHLLREVLE[Nle]TKADQLAEQAHSNRKLLDIA-NH2 [[Nle^21,Glu^29]-oCRF] | very significant lowering of blood pressure | stimulates the secretion of ACTH and β-END-LI | – | – | – | –
H-SQEPPISLDLTFHLLRE[Nle]LE[Nle]AKAEQEAEQAALNRLLLEEA-NH2 [[Nle^18, 21]-AHC] | very significant lowering of blood pressure | stimulates the secretion of ACTH and β-END-LI | – | – | – | –
H-SQEPPISLDLTFHLLRE[Nle]LE[Nle]TKADQLRQQAHSNRKLLDIA-NH2 [[Nle^18,21,Arg^28]-oCRF] | very significant lowering of blood pressure | stimulates the secretion of ACTH and β-END-LI | – | – | – | –
H-SQEPPISLDLTLELLREMLEMAKAEQEAEQAALNRLYLEEA-NH2 [[Leu^12, Glu^13, Tyr^37]-AHC] | very significant lowering of blood pressure | stimulates the secretion of ACTH and β-END-LI | – | – | – | –
H-SQEPPISLELTFHLLRE[Nle]LE[Nle]AKAEQEAEQAALNRLLLEEA-NH2 [[Glu^9, Nle^18, 21]-AHC] | very significant lowering of blood pressure | stimulates the secretion of ACTH and β-END-LI | – | – | – | –
H-SQE[dP]PISLDLTFHLLRE[Nle]LE[Nle]AKAEQEAEQAALNRLLLEEA-NH2 [[D-Pro^4, Nle^18,21]-AHC] | very significant lowering of blood pressure | stimulates the secretion of ACTH and β-END-LI | – | – | – | –
H-SQ[dY][dP]PISLDLTFHLLRE[Nle]LE[Nle]AKAEQEAEQAALNRLLLEEA-NH2 [[D-Tyr^3, D-Pro^4, Nle^18, 21]-AHC] | very significant lowering of blood pressure | stimulates the secretion of ACTH and β-END-LI | – | – | – | –
H-YSEEPPISLDLTFHLLREVLEMARAEQLAEQAHSNRKLMEII-NH2 [[Tyr-Ser^1, Glu^29]-rCRF] | very significant lowering of blood pressure | stimulates the secretion of ACTH and β-END-LI | – | – | – | –
